Source: the supplement of paper PMC10307832

Experiments:
Test in all cases: relative viability (nuclei count vs DMSO), 5 days (fraction); higher = more cells survive
[1] = compound: Cc1ccc2nc(NCCN)c3ncc(C)n3c2c1
How it was run: (§1)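 Viability was read as treated-well nuclei divided by vehicle-well nuclei, using the median across plates. Lung cancer cell lines in 1536-well plates were kept overnight at 37 °C, pinned with five √10-spaced library-drug doses, and after 5 days were Hoechst-stained, imaged at 4× and counted in MetaXpress. Plates passed only with control CV below 25% and at least one doubling.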

Salubrinal = compound: O=C(/C=C/c1ccccc1)NC(NC(=S)Nc1cccc2cccnc12)C(Cl)(Cl)Cl [Salubrinal]
How it was run: as §1

Salubrinal + Navitoclax = compound: O=C(/C=C/c1ccccc1)NC(NC(=S)Nc1cccc2cccnc12)C(Cl)(Cl)Cl [Salubrinal] + CC1(C)CCC(c2ccc(Cl)cc2)=C(CN2CCN(c3ccc(C(=O)NS(=O)(=O)c4ccc(N[C@H](CCN5CCOCC5)CSc5ccccc5)c(S(=O)(=O)C(F)(F)F)c4)cc3)CC2)C1 [Navitoclax] (partner 0.5 µM)
How it was run: (§2)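 Relative viability is defined as nuclei in treated wells over nuclei in vehicle wells. Duplicate plates were run and medians reported. Lung cancer cell lines in 1536-well plates were dosed by pin tool one day after seeding, with one drug or with a fixed anchor-drug dose plus five library-drug doses (not always all listed) in √10 steps, and nuclei were counted after 5 days.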

[2] = compound: Cc1ccc2nc(NCCN)c3ncc(C)n3c2c1 + CC(=O)Nc1cccc(-n2c(=O)n(C3CC3)c(=O)c3c(Nc4ccc(I)cc4F)n(C)c(=O)c(C)c32)c1 [Trametinib] (partner 0.02 µM)
How it was run: as §2

| Cell Line | relative viability ([1]; 0.04 µM) | relative viability ([1]; 0.1265 µM) | relative viability ([1]; 0.4 µM) | relative viability ([1]; 1.265 µM) | relative viability ([1]; 4 µM) | relative viability (Salubrinal; 0.08 µM) | relative viability (Salubrinal; 0.253 µM) | relative viability (Salubrinal; 0.8 µM) | relative viability (Salubrinal; 2.53 µM) | relative viability (Salubrinal; 8 µM) | relative viability (Salubrinal + Navitoclax; first compound 0.08 µM) | relative viability (Salubrinal + Navitoclax; first compound 0.253 µM) | relative viability (Salubrinal + Navitoclax; first compound 0.8 µM) | relative viability (Salubrinal + Navitoclax; first compound 2.53 µM) | relative viability (Salubrinal + Navitoclax; first compound 8 µM) | relative viability ([2]; first compound 0.04 µM) | relative viability ([2]; first compound 0.1265 µM) | relative viability ([2]; first compound 0.4 µM) | relative viability ([2]; first compound 1.265 µM) | relative viability ([2]; first compound 4 µM) |
| --- | --- | --- | --- | --- | --- | --- | --- | --- | --- | --- | --- | --- | --- | --- | --- | --- | --- | --- | --- | --- |
| 201T | 1.03 | 0.993 | 0.978 | 1.04 | 0.948 | 1.03 | 0.869 | 1.12 | 1.02 | 0.983 | 1.2 | 1.2 | 1.24 | 1.19 | 1.22 | 0.72 | 0.696 | 0.713 | 0.738 | 0.684 |
| A549 | 1.09 | 0.927 | 1.01 | 0.958 | 0.879 | 1.2 | 0.855 | 1.03 | 0.99 | 0.924 | 1.4 | 1.11 | 1.22 | 1.21 | 1.21 |  |  |  |  |  |
| A-427 | 1.01 | 1.01 | 0.968 | 1.05 | 0.95 | 1.06 | 0.973 | 1.12 | 0.965 | 1.08 | 0.942 | 1.01 | 1.08 | 0.886 | 0.926 | 0.725 | 0.731 | 0.705 | 0.695 | 0.775 |
| ABC-1 | 0.987 | 1.01 | 0.97 | 1.04 | 0.822 | 0.978 | 0.909 | 0.902 | 1.01 | 0.849 |  |  |  |  |  |  |  |  |  |  |
| BEN | 1.07 | 0.931 | 0.93 | 1.03 | 1.04 | 1.07 | 0.961 | 1.07 | 1.15 | 0.976 | 0.0699 | 0.0611 | 0.0613 | 0.0706 | 0.0675 | 0.97 | 0.929 | 1.07 | 0.958 | 1.05 |
| CAL-12T | 0.984 | 0.981 | 0.976 | 1.02 | 0.91 | 1.09 | 0.956 | 1.08 | 1.03 | 0.888 | 1.29 | 0.952 | 1.21 | 1.09 | 1.06 | 0.352 | 0.323 | 0.361 | 0.357 | 0.271 |
| COR-L23 | 1.05 | 1.04 | 0.964 | 0.994 | 0.994 | 1.11 | 1.1 | 1.06 | 0.966 | 0.95 | 1.2 | 0.952 | 1.15 | 0.927 | 0.865 | 0.581 | 0.564 | 0.624 | 0.648 | 0.506 |
| COR-L 105 | 0.997 | 0.864 | 0.955 | 1.05 | 0.801 | 0.93 | 0.895 | 0.94 | 0.88 | 0.83 | 0.715 | 0.718 | 0.76 | 0.765 | 0.723 | 0.423 | 0.506 | 0.478 | 0.407 | 0.414 |
| Calu-6 | 1.03 | 0.986 | 0.974 | 1.02 | 0.854 | 1.17 | 0.925 | 1.01 | 0.981 | 0.936 | 0.903 | 0.749 | 0.888 | 0.877 | 0.809 |  |  |  |  |  |
| ChaGo-K-1 | 0.958 | 1.01 | 1.05 | 1.01 | 0.874 | 1.05 | 0.912 | 1.15 | 1.01 | 0.922 | 1.07 | 0.849 | 1.58 | 1.37 | 1.12 | 0.884 | 0.924 | 0.904 | 0.849 | 0.77 |
| EBC-1 | 1.08 | 0.976 | 0.934 | 0.946 | 0.79 | 1.02 | 0.923 | 1.12 | 0.887 | 0.902 | 0.349 | 0.332 | 0.435 | 0.399 | 0.287 |  |  |  |  |  |
| EKVX | 1.07 | 0.889 | 0.992 | 0.948 | 0.826 | 1.04 | 0.837 | 1.01 | 1.06 | 1.04 | 0.958 | 0.983 | 0.911 | 1.08 | 1.06 | 0.383 | 0.365 | 0.269 | 0.261 | 0.291 |
| EMC-BAC-2 | 1 | 1 | 0.966 | 1.08 | 0.946 | 0.934 | 1.06 | 1.25 | 0.996 | 0.973 | 1.53 | 1.01 | 1.2 | 1.16 | 1.15 | 0.927 | 0.927 | 0.873 | 0.954 | 0.7 |
| EPLC-272H | 1.01 | 1.13 | 0.992 | 1 | 0.835 | 0.917 | 0.884 | 1.07 | 0.98 | 0.765 | 1.23 | 1.02 | 1.4 | 1.19 | 1.04 | 0.296 | 0.334 | 0.282 | 0.253 | 0.245 |
| H3255 | 1.02 | 0.9 | 0.886 | 1.06 | 0.843 | 1.07 | 0.965 | 1.11 | 0.958 | 0.949 | 0.637 | 0.481 | 0.582 | 0.523 | 0.564 | 0.562 | 0.554 | 0.564 | 0.523 | 0.575 |
| HARA | 0.913 | 0.956 | 0.928 | 0.843 | 0.973 | 1 | 0.956 | 1.02 | 0.908 | 1.17 | 1.05 | 1.18 | 1.13 | 1.16 | 1.11 | 0.637 | 0.648 | 0.41 | 0.723 | 0.761 |
| HCC-15 | 1 | 1.09 | 0.907 | 0.916 | 0.86 | 1.13 | 0.93 | 1.14 | 1.08 | 0.963 | 0.785 | 0.602 | 0.722 | 0.771 | 0.689 | 0.425 | 0.373 | 0.364 | 0.356 | 0.381 |
